Data taken from patent publication US20250034139A1, “AMINE COMPOUNDS HAVING ANTI-INFLAMMATORY, ANTIFUNGAL, ANTIPARASITIC, AND ANTICANCER ACTIVITY” (PHARMA CINQ, LLC, priority 2013, published 2025).

Key:
[1] = system: PC-3 prostate cancer cells; assay: Example T: sensitisation of PC-3 cells to doxorubicin, oxaliplatin, paclitaxel or vincristine, Wst1; format: cell-based, human; settings: PC-3 cells, 72 hours; for viability at 2.5 µM / viability at 5 µM: Homo sapiens, Wst1, vehicle = 100, read-out: No Chemo: percent cell survival; for viability at 2.5 µM: compound 2.5 μM alone; for Doxorubicin 3.5 μM: percent cell survival / Oxaliplatin 100 μM: percent cell survival / Paclitaxel 50 μM: percent cell survival / Vincristine 100 nM: percent cell survival: chemotherapy agent alone normalized to 100%; for viability at 5 µM: compound 5 μM alone
[2] = system: PC3 human prostate cancer cells; assay: Example S: in vitro anticancer screen, PC-3 cells, Wst1; format: cell-based; settings: Homo sapiens, PC-3, approximately 20 hours, Wst1, read-out: PC-3, percent of cancer cell survival relative to vehicle treated cells
Experimental: Activity against PC3 human prostate cancer cells in vitro was assessed by a similar method. PC-3 prostate cancer cells were plated at 2×10^4 cells/well in 96 well flat bottom tissue culture plates, and incubated for approximately 20 hours with vehicle or test compounds at concentrations of 0.4, 0.5 or 2.5 μM as indicated for specific compounds in the right-hand column of Table 37. A 1/10th volume of Wst1 dye was added/well and incubated for two hours in the cell culture incubator. Samples were analyzed in triplicate on an EL800 Universal Microplate Reader at 450 nm, reference wavelength 630 nm.
(§1) Numerical values in the Table 37 represent percent of cancer cell survival relative to vehicle treated cells at the indicated concentrations, with values under 100 indicating anticancer cytotoxic activity at the drugs concentrations tested.

THP-1 cells = assay: Example D: LPS-triggered THP-1 cell death assay, acute/5-hour and chronic/48-hour; format: cell-based, Human; settings: 10 ng/ml LPS, 0.1 μM test compound, 48 hours
Experimental: Compounds of the invention were tested at 0.1 μM versus AC in the LPS-triggered THP-1 cell death assay. Both acute/5-hour and chronic/48-hour phases of cell death were assessed. Compounds were screened in batches with DMSO as the negative control and AC as the high activity control.

[3] = system: 4T1 murine breast cancer cells; assay: Example S: in vitro anticancer screen, 4T1 cells, Wst1; format: cell-based, mouse; settings: Mus musculus, 4T1, 18 h, 18 hr, Wst1; for viability at 1 µM: read-out: 4T1 1 μM, percent of cancer cell survival relative to vehicle treated cells; for viability at 5 µM: read-out: 4T1 5 μM, percent of cancer cell survival relative to vehicle treated cells
Experimental: Anticancer activity against 4T1 murine breast cancer cells cancer cells was assessed in vitro by seeding 1×10^4 cells/well in flat bottom culture plates, then treating with selected 1 μM or 5 μM concentrations of compounds for 18 hr after plating. Then 10 μL of Wst1 dye reagent, a tetrazolium dye indicator for […], was added/well and incubated approximately 2 hr before being assayed on the Biotek EL800 Universal microplate reader (450 nm, reference 630 nm).
as §1

[4] = compound 2.5 μM + doxorubicin 3.5 μM
[5] = compound 2.5 μM + oxaliplatin 100 μM
[6] = compound 2.5 μM + paclitaxel 50 μM
[7] = compound 2.5 μM + vincristine 100 nM
[8] = compound 5 μM + doxorubicin 3.5 μM
[9] = compound 5 μM + oxaliplatin 100 μM
[10] = compound 5 μM + paclitaxel 50 μM
[11] = compound 5 μM + vincristine 100 nM

CCOCCCCCCCCn1cnc2cnc3ccccc3c21 [CD, 1-(8-Ethoxyoctyl)-1H-imidazo[4,5-c]quinoline]
viability at 2.5 µM [1]: 16.6% | Doxorubicin 3.5 μM: percent cell survival [1, 4]: 19.5% | Oxaliplatin 100 μM: percent cell survival [1, 5]: 20.1% | Paclitaxel 50 μM: percent cell survival [1, 6]: 23.2% | Vincristine 100 nM: percent cell survival [1, 7]: 17.1% | viability at 2.5 µM [2]: 16.6% | Viable cell percent change, Chronic/48-hour, Mean (THP-1 cells): 7.55%

COCCCCCCCCn1cnc2cnc3ccccc3c21 [CE, 1-(8-Methoxyoctyl)-1H-imidazo[4,5-c]quinoline]
viability at 2.5 µM [1]: 16.2% | Doxorubicin 3.5 μM: percent cell survival [1, 4]: 44.3% | Oxaliplatin 100 μM: percent cell survival [1, 5]: 18.8% | Paclitaxel 50 μM: percent cell survival [1, 6]: 23.5% | Vincristine 100 nM: percent cell survival [1, 7]: 15.6% | viability at 2.5 µM [2]: 16.2% | Viable cell percent change, Chronic/48-hour, Mean (THP-1 cells): 4.71%

COCCCCCNc1ccnc2ccccc12 [CM, N-(5-Methoxypentyl)quinolin-4-amine]
viability at 5 µM [1]: 37.8% | Doxorubicin 3.5 μM: percent cell survival [1, 8]: 72.6% | Oxaliplatin 100 μM: percent cell survival [1, 9]: 78.1% | Paclitaxel 50 μM: percent cell survival [1, 10]: 74.8% | Vincristine 100 nM: percent cell survival [1, 11]: 81.3% | viability at 5 µM [2]: 37.8% | viability at 1 µM [3]: 104% | viability at 5 µM [3]: 221%

CCOc1ccccc1OCCCNc1ccnc2ccccc12 [CS, N-[3-(2-Ethoxyphenoxy)propyl]quinolin-4-amine]
viability at 2.5 µM [1]: 41.3% | Doxorubicin 3.5 μM: percent cell survival [1, 4]: 79% | Oxaliplatin 100 μM: percent cell survival [1, 5]: 84.2% | Paclitaxel 50 μM: percent cell survival [1, 6]: 69.7% | Vincristine 100 nM: percent cell survival [1, 7]: 82.8% | viability at 2.5 µM [2]: 41.3% | Viable cell percent change, Chronic/48-hour, Mean (THP-1 cells): 66.27%

COc1ccccc1OCCCNc1ccnc2ccccc12 [CT, N-[3-(2-Methoxyphenoxy)propyl]quinolin-4-amine]
viability at 2.5 µM [1]: 34.5% | Doxorubicin 3.5 μM: percent cell survival [1, 4]: 63.2% | Oxaliplatin 100 μM: percent cell survival [1, 5]: 71.9% | Paclitaxel 50 μM: percent cell survival [1, 6]: 46.3% | Vincristine 100 nM: percent cell survival [1, 7]: 46.3% | viability at 2.5 µM [2]: 34.5% | Viable cell percent change, Chronic/48-hour, Mean (THP-1 cells): 34.36%

c1ccc(COc2ccccc2OCCCNc2ccnc3ccccc23)cc1 [CU, N-{3-[2-(Benyloxy)phenoxy]propyl}quinolin-4-amine]
viability at 2.5 µM [1]: 37.6% | Doxorubicin 3.5 μM: percent cell survival [1, 4]: 65% | Oxaliplatin 100 μM: percent cell survival [1, 5]: 74.9% | Paclitaxel 50 μM: percent cell survival [1, 6]: 100.2% | Vincristine 100 nM: percent cell survival [1, 7]: 56.7% | viability at 2.5 µM [2]: 37.6% | Viable cell percent change, Chronic/48-hour, Mean (THP-1 cells): 41.84%

CCCCCCOc1ccccc1C(=O)NCCNc1ccnc2ccccc12 [EB, 2-(Hexyloxy)-N-[2-(quinolin-4-ylamino)ethyl]benzamide]
viability at 2.5 µM [1]: 94.4% | Doxorubicin 3.5 μM: percent cell survival [1, 4]: 93.4% | Oxaliplatin 100 μM: percent cell survival [1, 5]: 98.8% | Paclitaxel 50 μM: percent cell survival [1, 6]: 143.3% | Vincristine 100 nM: percent cell survival [1, 7]: 98.2% | viability at 2.5 µM [2]: 94.4% | Viable cell percent change, Chronic/48-hour, Mean (THP-1 cells): 35.89%

CCCCCCOc1ccccc1C(=O)NCCCNc1ccnc2ccccc12 [EC, 2-(Hexyloxy)-N-[3-(quinolin-4-ylamino)propyl]benzamide]
viability at 2.5 µM [1]: 94.6% | Doxorubicin 3.5 μM: percent cell survival [1, 4]: 82.8% | Oxaliplatin 100 μM: percent cell survival [1, 5]: 100.4% | Paclitaxel 50 μM: percent cell survival [1, 6]: 136.8% | Vincristine 100 nM: percent cell survival [1, 7]: 91.6% | viability at 2.5 µM [2]: 94.6% | Viable cell percent change, Chronic/48-hour, Mean (THP-1 cells): 47.40%

CCCCCCOCCCCCCCCNc1cnc2ccccc2c1 [EL, N-[8-(Hexyloxy)octyl]quinolin-3-amine]
viability at 2.5 µM [1]: 41.8% | Doxorubicin 3.5 μM: percent cell survival [1, 4]: 73.7% | Oxaliplatin 100 μM: percent cell survival [1, 5]: 99.4% | Paclitaxel 50 μM: percent cell survival [1, 6]: 86.1% | Vincristine 100 nM: percent cell survival [1, 7]: 70.8% | viability at 2.5 µM [2]: 41.8% | viability at 1 µM [3]: 108% | viability at 5 µM [3]: 39.4%

CCOCc1nc2cnc3ccccc3c2n1CC(C)(C)O [FB, 1-[2-(Ethoxymethyl)-1H-imidazo[4,5-c]quinolin-1-yl]-2-methylpropan-2-ol]
viability at 2.5 µM [1]: 97.7% | Doxorubicin 3.5 μM: percent cell survival [1, 4]: 89.1% | Oxaliplatin 100 μM: percent cell survival [1, 5]: 95.5% | Paclitaxel 50 μM: percent cell survival [1, 6]: 93.2% | Vincristine 100 nM: percent cell survival [1, 7]: 98.6% | viability at 2.5 µM [2]: 97.7% | viability at 1 µM [3]: 92.7% | viability at 5 µM [3]: 90%

CCCCCCCCCCCCCCCc1nc2c(O)nc3ccccc3c2n1CC(C)C [FD, 1-Isobutyl-2-pentadecyl-1H-imidazo[4,5-c]quinolin-4-ol]
viability at 5 µM [1]: 112% | Doxorubicin 3.5 μM: percent cell survival [1, 8]: 101% | Oxaliplatin 100 μM: percent cell survival [1, 9]: 85.3% | Paclitaxel 50 μM: percent cell survival [1, 10]: 95.6% | Vincristine 100 nM: percent cell survival [1, 11]: 98.7% | viability at 5 µM [2]: 112% | viability at 1 µM [3]: 106% | viability at 5 µM [3]: 112%

CCCCCCCCCCCCCCCCn1cnc2cnc3ccccc3c21 [FE, 1-Hexadecyl-1H-imidazo[4,5-c]quinoline]
viability at 5 µM [1]: 34.2% | Doxorubicin 3.5 μM: percent cell survival [1, 8]: 46.8% | Oxaliplatin 100 μM: percent cell survival [1, 9]: 67.6% | Paclitaxel 50 μM: percent cell survival [1, 10]: 113.7% | Vincristine 100 nM: percent cell survival [1, 11]: 37.3% | viability at 5 µM [2]: 34.2% | viability at 1 µM [3]: 108% | viability at 5 µM [3]: 31.7%

CCCCCCCCCCCCCCCCn1cnc2c(N)nc3ccccc3c21 [FF, 1-Hexadecyl-1H-imidazo[4,5-c]quinolin-4-amine]
viability at 5 µM [1]: 93% | Doxorubicin 3.5 μM: percent cell survival [1, 8]: 90.7% | Oxaliplatin 100 μM: percent cell survival [1, 9]: 95.2% | Paclitaxel 50 μM: percent cell survival [1, 10]: 136.1% | Vincristine 100 nM: percent cell survival [1, 11]: 110.1% | viability at 5 µM [2]: 93% | viability at 1 µM [3]: 103% | viability at 5 µM [3]: 102%

CCCCCCCCCCCCOCCn1cnc2c(N(C)C)nc3ccccc3c21 [FH, 1-[2-(Dodecyloxy)ethyl]-N,N-dimethyl-1H-imidazo[4,5-c]quinolin-4-amine]
viability at 5 µM [1]: 89% | Doxorubicin 3.5 μM: percent cell survival [1, 8]: 79.6% | Oxaliplatin 100 μM: percent cell survival [1, 9]: 82.3% | Paclitaxel 50 μM: percent cell survival [1, 10]: 131.8% | Vincristine 100 nM: percent cell survival [1, 11]: 114.9% | viability at 5 µM [2]: 89% | viability at 1 µM [3]: 101% | viability at 5 µM [3]: 102%

CCCCCCCCCCCCn1cnc2cnc3ccccc3c21 [FY, 1-Dodecyl-1H-imidazo[4,5-c]quinoline]
viability at 2.5 µM [1]: 36% | Doxorubicin 3.5 μM: percent cell survival [1, 4]: 74.6% | Oxaliplatin 100 μM: percent cell survival [1, 5]: 91.5% | Paclitaxel 50 μM: percent cell survival [1, 6]: 91% | Vincristine 100 nM: percent cell survival [1, 7]: 80.1% | viability at 2.5 µM [2]: 36% | viability at 1 µM [3]: 95.2% | viability at 5 µM [3]: 26.8%

CCCCCCCCCCOCCCn1cnc2cnc3ccccc3c21 [FZ, 1-[3-(Decyloxy)propyl]-1H-imidazo[4,5-c]quinoline]
viability at 5 µM [1]: 32.7% | Doxorubicin 3.5 μM: percent cell survival [1, 8]: 39.6% | Oxaliplatin 100 μM: percent cell survival [1, 9]: 67.7% | Paclitaxel 50 μM: percent cell survival [1, 10]: 114.8% | Vincristine 100 nM: percent cell survival [1, 11]: 38.5% | viability at 5 µM [2]: 32.7% | viability at 1 µM [3]: 91.4% | viability at 5 µM [3]: 56.6%

CCCCCCOc1cccc(OCCCn2cnc3cnc4ccccc4c32)c1 [GD, 1-{3-[3-(Hexyloxy)phenoxy]propyl}-1H-imidazo[4,5-c]quinoline]
viability at 2.5 µM [1]: 24.3% | Doxorubicin 3.5 μM: percent cell survival [1, 4]: 39.5% | Oxaliplatin 100 μM: percent cell survival [1, 5]: 26.7% | Paclitaxel 50 μM: percent cell survival [1, 6]: 27% | Vincristine 100 nM: percent cell survival [1, 7]: 23.5% | viability at 2.5 µM [2]: 24.3%
